Measurements from patent publication US20040087559A1, “Methods for prevention and treatment of cancer” (priority 1999, published 2004).
Entries after “also recorded” stand apart in the source; their conditions may differ. Read-outs that look alike come from different tables or passages of the source.

Key:
[1] = test system: renal proximal tubular cells; conditions: primary cultures of renal proximal tubular cells; cited from earlier work
[2] = test system: human prostate cancer cells; conditions: cited from earlier work
[3] = test system: HEP 62 hepatoma cell line; conditions: cited from earlier work
[4] = test system: human T-lymphotrophic virus-transformed lymphocytes; conditions: cited from earlier work
human bone cells = human bone cells (extra-renal site); cited from earlier work
[5] = test system: normal human keratinocytes transfected with 1α-OHase cDNA; assay: [3H]thymidine incorporation of human keratinocytes transfected with 1α-OHase cDNA; type: cell-based
Procedure: FIG. 6 depicts a graph showing the effect of 25(OH)D3 concentration on the proliferative activity of normal human keratinocytes transfected with 1α-OHase cDNA. Cultured human keratinocytes transfected with a vector containing the 1α-OHase cDNA as described were incubated with 25(OH)D3 at different concentrations (1 nM, 10 nM, 100 nM) for 18 hours. [^3H]thymidine incorporation was measured as described. ●-: [^3H]thymidine incorporation of cells not transfected (“Control”); ∘-∘: [^3H]thymidine incorporation of cells transfected with vector containing 1α-OHase cDNA (“1α-OHase transfection”).
(F) Keratinocyte transfection. Keratinocytes were maintained in MCDB-153 medium. Cells in 24-well dishes at 50%-60% confluence were transfected with […] of 1α-OHase cDNA which had been subcloned into pCR3.1 vector (INVITROGEN). Empty vector was used as a control. For each transfection, 1.0 μg was diluted in 100 μl of medium containing 6-8 μl Plus Reagent. This mixture was incubated for 15 minutes at room temperature. […] [^3H]thymidine was added to the cultures and [^3H]thymidine incorporation into the DNA (interpreted as a measure of the DNA synthetic activity, i.e. proliferation of the cells) was measured as previously described (Chen, T. C., et al., J Nutr. Biochem. 4:49-57 (1993)). […]

1α-OHase [6] = target: T1, 1α-OHase (Homo sapiens, UniProt O15528); conditions: PC-3
T1 sequence (O15528 1-508): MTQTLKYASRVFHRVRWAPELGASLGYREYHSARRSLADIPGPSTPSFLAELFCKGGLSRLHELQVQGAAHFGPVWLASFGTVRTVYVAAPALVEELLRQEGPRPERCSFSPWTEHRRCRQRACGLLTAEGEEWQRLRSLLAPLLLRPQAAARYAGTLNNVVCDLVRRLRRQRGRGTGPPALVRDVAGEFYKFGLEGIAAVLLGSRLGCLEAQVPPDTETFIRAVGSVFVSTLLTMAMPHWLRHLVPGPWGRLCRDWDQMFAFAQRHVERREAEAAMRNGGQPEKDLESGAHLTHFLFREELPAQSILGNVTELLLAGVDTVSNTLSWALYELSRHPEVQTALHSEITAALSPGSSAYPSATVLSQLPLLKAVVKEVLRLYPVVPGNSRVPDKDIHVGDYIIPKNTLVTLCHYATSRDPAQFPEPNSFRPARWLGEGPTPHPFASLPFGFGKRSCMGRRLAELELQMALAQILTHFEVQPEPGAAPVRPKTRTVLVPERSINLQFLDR
Procedure: (§1) (A) Cell Lines. DU 145, PC-3, and LNCaP cell lines were obtained from the American Type Culture Collection, Rockville, Md. All cell lines were tested and found to be free of Mycoplasma contamination.
(§2) (B) Culture Conditions. Prostate cancer cell lines were cultured following several passages in vitro. Cells were routinely cultured in complete medium (RPMI 1640 medium supplemented with fetal bovine serum (10%., HyClone Labs, Logan Utah) and gentamicin (10 μg/ml, Life Technologies, Inc., Gaithersburg, Md.)). Cells were seeded in 35 mm culture dishes (Corning-Costar, Cambridge, Mass.) at 1×10^5 cells/dish in complete medium. Medium was changed to a serum-free medium (RPMI 1640 containing insulin (10 μg/ml), transferrin ( 10 μg/ml) and selenous acid (1 ng/ml)) 24 hours before adding 25(OH)D3.

1α-OHase [7] = target: T1, 1α-OHase; conditions: BPH cultures; clotrimazole 20 μM; 25(OH)D3 50 nM, [3H]-25(OH)D3, DPPD 10 μM, 2 h 37° C. (FIG. 5)
Procedure: (§3) In addition, 1α-OHase activity was determined by using a radioactive metabolite, [^3H]-25(OH)D, as substrate.
Second passage of prostate cells derived from BPH cultures were incubated with nonradioactive 25(OH)D3 (50 nM), [^3H]-25(OH)D3 (0.91 μCi/nmol) and DPPD (10 μM) at 37° C. for two hours in the absence of clotrimazole (20 μM).

1α-OHase [8] = target: T1, 1α-OHase; conditions: normal human prostate cells; clotrimazole 20 μM; 25(OH)D3 50 nM, [3H]-25(OH)D3, DPPD 10 μM, 2 h 37° C. (FIG. 3)
Procedure: as §3
Second passage of normal human prostate cells incubated with nonradioactive 25(OH)D3 (50 nM), [^3H]-25(OH)D3 (0.91 μCi/nmol) and 1,2-dianilinoethane (DPPD) (10 μM) at 37° C. for two hours in the absence of clotrimazole (20 μM) is shown in FIG. 2.
Second passage of normal human prostate cells were also incubated with nonradioactive 25(OH)D3 (50 nM), [^3H]-25(OH)D3 (0.91 μCi/nmol) and DPPD (10 μM) at 37° C. for two hours in the presence of clotrimazole (20 μM) in the presence of the cytochrome P450 inhibitor (clotrimazole).

1α-OHase [9] = target: T1, 1α-OHase; conditions: DU 145
Procedure: as §1, §2

1α-OHase [10] = target: T1, 1α-OHase; conditions: BPH96-11; clotrimazole 20 μM; 25(OH)D3 50 nM, 2 h 37° C.
Description: (§4) Primary cultures of human prostatic epithelial cells were established and characterized as described by Lokeshwar et al., Cancer Res. 53:4493-4498 (1993). Prostatic epithelial cells cultured in a serum-free defined medium (Mammary Epithelial Growth Medium (MEGM), Clontech, San Diego, Calif.) express luminal epithelium specific cytokeratins (cytokeratins 8 and 18) as detected immunohistochemically using an anti-cytokeratin antibody, CAM 5.2 (Becton-Dickinson, Mountain View, Calif.). The serum-free medium contains MCDF170 supplemented with Epidermal Growth Factor, 25 ng/ml, hydrocortisone, 0.5 μg/ml, ethanolamine, 1×10^−4, insulin, 5 μg/ml, transferrin, 5 μg/ml, and whole bovine pituitary extract, 70 μg/ml.
(§5) Prostatic cells used were at their first passage in vitro and were cultured in the serum-free RPMI medium during incubation with vitamin D metabolites. […] Histological examination of adjacent tissue sections taken from specimens used for cultures confirmed their identity as normal or BPH cultures.

1α-OHase [11] = target: T1, 1α-OHase; type: cell-based; set-up: two primary cultures of cells, NP96-5 and BPH96-11, derived from noncancerous human prostates; endogenous in cells; host or cells: primary human prostatic epithelial cultures NP96-5 (normal prostate) and BPH96-11 (BPH); conditions: Human keratinocytes; clotrimazole 20 μM; 25(OH)D3 50 nM, 2 h 37° C.
1α-OHase [12] = target: T1, 1α-OHase; conditions: LNCaP; clotrimazole 20 μM; 25(OH)D3 50 nM, 2 h 37° C.
Procedure: as §1, §2

1α-OHase [13] = target: T1, 1α-OHase; conditions: NP96-5; clotrimazole 20 μM; 25(OH)D3 50 nM, 2 h 37° C.
Description: as §4, §5

[14] = clotrimazole 20 μM, 25(OH)D3 50 nM, 2 h 37° C.

**Q.** With C=C1/C(=C\C=C2/CCC[C@]3(C)[C@@H]([C@H](C)CCCC(C)(C)O)CC[C@@H]23)C[C@@H](O)C[C@@H]1O [1,25(OH)2D, 1,25-dihydroxyvitamin D] as the compound, how does the 1α-OHase enzyme activity [1] read?
**A.** Its 1α-OHase enzyme activity is 5.3-5.6 pmol/hr/mg protein.

**Q.** What about the “Level of 1,25(OH)2D that can significantly inhibit invasiveness” value ([2]; artificial basement membrane composed of human amnions) of the same compound?
**A.** Its value is ≥ 10^−11 M.

**Q.** And the “effect on invasiveness of DU 145 cells” value ([2]; physiological levels of 1,25(OH)2D, DU 145, correlated with decrease in secreted type IV collagenase (MMP-2 and MMP-9))?
**A.** Its value is “significantly inhibit the invasiveness”.

**Q.** And the “1,25(OH)2D produced” value [3]?
**A.** The value was 2.3 pmol/mg protein/hr.

**Q.** What about the “1,25(OH)2D produced” value [4] of the same compound?
**A.** The value was 1.6 pmol/mg protein/hr.

**Q.** What about the “1,25(OH)2D produced” value (human bone cells) of the same compound?
**A.** Its value is 0.068 pmol/mg protein/hr.

**Q.** What does the source list for C=C1CC[C@H](O)C/C1=C/C=C1\CCC[C@]2(C)[C@@H]([C@H](C)CCCC(C)(C)O)CC[C@@H]12 [25(OH)D, 25-hydroxyvitamin D]?
**A.** proliferative activity of transfected vs non-transfected control keratinocytes ([5]; 25(OH)D 10^−9 to 10^−7M, 18 hours (FIG. 6)): more marked decrease in proliferative activity; reduction in the proliferative activity ([3H]thymidine incorporation) ([5]; 25(OH)D at 10^−7 M, 18 hours, cells transfected with 1α-OHase gene compared to untransfected keratinocytes, p<0.01): 53.7%

**Q.** What does the source list for Clc1ccccc1C(c1ccccc1)(c1ccccc1)n1ccnc1 [clotrimazole]?
**A.** inhibition of 1,25(OH)2D production (1α-OHase [6]; clotrimazole): 100%; 1,25(OH)2D Produced, P-450 Inhibitor Present (1α-OHase [6]; [14]): completely inhibited; also recorded: undetectable; 1,25(OH)2D metabolite level in the presence of clotrimazole (tritium activity, HPLC) (1α-OHase [7]): less than 200 cpm; 1,25(OH)2D synthesis in the presence of clotrimazole (HPLC) (1α-OHase [8]): undetectable; inhibition of 1,25(OH)2D production (1α-OHase [9]; clotrimazole): 100%; 1,25(OH)2D Produced, P-450 Inhibitor Present (1α-OHase [9]; [14]): completely inhibited; also recorded: undetectable; 1,25(OH)2D Produced, P-450 Inhibitor Present (1α-OHase [10]): completely inhibited; also recorded: undetectable; 1,25(OH)2D Produced, P-450 Inhibitor Present (1α-OHase [11]): completely inhibited; also recorded: undetectable; 1,25(OH)2D Produced, P-450 Inhibitor Present (1α-OHase [12]): undetectable; 1,25(OH)2D Produced, P-450 Inhibitor Present (1α-OHase [13]): completely inhibited; also recorded: undetectable
